The source of these data is patent US9682056B2, “Oleacein for treating or preventing diseases resulting from atherosclerotic plaques” (Warszawski Uniwersytet Medyczny, priority 2012, dated 2017).

Experiment [1] concerns metalloproteinase-9 (MMP-9) production. Briefly: MMP-9 production by LPS-stimulated atherosclerotic plaque from carotid artery, ELISA. As to conditions: Homo sapiens; plaques (n=15) from endoartherectomy patients; LPS 1 μg/ml stimulation; 24 hours at 37° C.; average±standard error; read-out: IC50, inhibition of MMP-9 production. The format is cell-based. As to the method:
Atherosclerotic plaques (n=15) were obtained from patients subjected to endoartherectomy. The plaque obtained was divided into two portions, which were then incubated in buffered physiological saline (control), or buffered physiological saline in the presence of oleacein at the concentrations of 5, 10 and 20 μM for 24 hours at a temperature of 37° C. following prior stimulation with a solution of lipopolysaccharide at a concentration of 1 μg/ml. The unstimulated control consisted of physiological saline, in which the plaque was incubated for […]. The effect of oleacein on metalloproteinase-9 (MMP-9) production was determined using immunochemical ELISA (R&D System). The amount of MMP-9 (ng/ml) was calculated per mass of atherosclerotic plaque, and then described in terms of percentage in comparison to the stimulated control.

The test system of experiment [2] is interleukin 10 (IL-10) production. Briefly: IL-10 production by atherosclerotic plaque, ELISA. As to conditions: IL-10 amount per atherosclerotic plaque mass, % of stimulated control. The format is cell-based, human. The source says: The effects of olacein on interleukin 10 (IL-10) production were investigated with the use of the ELISA immunochemical method (R&D system). The IL-10 amounts were converted into the atherosclerotic plaque mass and, subsequently, determined in % compared to the stimulated control.

As to `C/C=C(/C=O)[C@@H](CC=O)CC(=O)OCCc1ccc(O)c(O)c1` [oleacein], the IC50 in experiment [1] is 9.07 ± 1.2 µM. For the same compound, the “IL-10 production compared to the stimulated control” value in experiment [2] is given as “about 267.1±61.5%”.
